Reference: PMC3514216, “SRC Homology 2 Domain Binding Sites in Insulin, IGF-1 and FGF receptor mediated signaling networks reveal an extensive potential interactome” (Cell Communication and Signaling : CCS, 2012)

Tests used:
Crk SH2 domain [1] = target: T1, Crk SH2 domain (Homo sapiens, UniProt P46108); assay: SPOT peptide array; format: binding; conditions: GST-SH2 0.25 μM, membrane-bound peptide, 1 mM DTT, LiCor read-out
Outline: (§1)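 Membrane-bound 11-mer phosphotyrosine peptides from insulin, IGF-1 and FGF receptors, their substrates and signaling proteins were probed with GST–SH2 fusions and detected with anti-GST and near-infrared secondary antibodies. Spots >3× the membrane mean scored positive and below the mean negative. GST-only "sticky" peptides were excluded.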

Hck SH2 domain = assay: SPOT peptide array; format: binding; conditions: GST-SH2 0.25 μM, membrane-bound peptide, 1 mM DTT, LiCor read-out
Outline: as §1

panel of 50 SH2 domains = assay: SPOT peptide array probed with each of 50 GST-SH2 domains; format: binding; conditions: SH2 domains with intensity >3X array mean; GST-SH2 0.25 μM, 1 mM DTT
Outline: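 Membrane SPOT arrays of 192 phosphotyrosine 11-mer peptides (four residues N-terminal, six C-terminal to pTyr) probed with GST-SH2 fusions, detected by anti-GST plus near-infrared secondary antibody. Spots >3-fold array mean scored positive, below mean negative, 1–3× indeterminate; peptides binding GST alone above mean in two of three trials flagged as sticky.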

Rasa1_C SH2 domain = target: T2, Rasa1_C SH2 domain (Homo sapiens, UniProt P20936); assay: SPOT peptide array; format: binding; conditions: GST-SH2 0.25 μM, membrane-bound peptide, 1 mM DTT, LiCor read-out
T2 sequence (P20936 351-441 limits assumed): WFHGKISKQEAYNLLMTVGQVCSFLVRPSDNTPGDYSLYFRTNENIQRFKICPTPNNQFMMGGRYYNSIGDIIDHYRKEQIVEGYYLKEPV

Ptpn11_N SH2 domain = target: T3, Ptpn11_N SH2 domain (Homo sapiens, UniProt Q06124); assay: Fluorescence polarization solution binding; conditions: Rhodamine B-labeled peptide, GST-SH2, Beacon 2000, read-out: Affinity (KD)
T3 sequence (Q06124 6-102 limits assumed): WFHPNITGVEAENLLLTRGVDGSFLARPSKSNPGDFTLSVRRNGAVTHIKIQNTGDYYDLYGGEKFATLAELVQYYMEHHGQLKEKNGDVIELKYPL
Description: (§2) To verify the binding results obtained from addressable peptide arrays we employed an orthogonal method of determining SH2 interactions with peptide ligands. We measured the dissociation constants of 60 binary SH2-peptide pairs in solution by fluorescence polarization (Table 2, Additional file 2: Figures S3A-C).
(§3) Peptides were synthesized using FMOC-chemistry onto pre-loaded tenta-gel resins. Peptides were then labeled with Rhodamine B (Abbey Color) and then cleaved using trifluoroacetic acid. Peptides were lyophilized and then purified using a LC/MS (Agilent 2100). Dissociation constants were measured using the Beacon 2000 (Invitrogen) as previously described.
(§4) Binding Affinities determined by Fluorescence Polarization. Rhodamine B-labeled peptides were mixed with varying concentrations of GST-tagged SH2 domains. Fluorescence polarization measurements were read on a Beacon 2000 (Invitrogen). The curves were fit to a Michaelis-Menten equation to calculate the dissociation constant, KD. […] (C) Affinity measurements that fell below the 2X mean intensity and were considered array negative on the SPOT array.

Crk SH2 domain [2] = target: T1, Crk SH2 domain; assay: Fluorescence polarization solution binding; conditions: Rhodamine B-labeled peptide, GST-SH2, Beacon 2000, read-out: Affinity (KD)
Description: as §2, §3, §4

PI3K1_N SH2 domain = PI3K1_N SH2 domain (Homo sapiens, UniProt P27986); assay: Fluorescence polarization solution binding; conditions: Rhodamine B-labeled peptide, GST-SH2, Beacon 2000, read-out: Affinity (KD)
PI3K1_N SH2 domain, sequence (P27986 333-428 limits assumed): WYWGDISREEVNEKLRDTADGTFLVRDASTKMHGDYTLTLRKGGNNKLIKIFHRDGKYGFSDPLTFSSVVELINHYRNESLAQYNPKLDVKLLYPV
Description: as §2, §3, §4

Plcg2_C SH2 domain = Plcg2_C SH2 domain (Homo sapiens, UniProt P16885); assay: Fluorescence polarization solution binding; conditions: Rhodamine B-labeled peptide, GST-SH2, Beacon 2000, read-out: Affinity (KD)
Plcg2_C SH2 domain, sequence (P16885 646-735 limits assumed): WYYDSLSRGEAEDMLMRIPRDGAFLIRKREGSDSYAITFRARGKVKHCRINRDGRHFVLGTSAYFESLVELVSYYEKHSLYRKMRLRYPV
Description: as §2
As noted above, this study performs well in terms of reproducing the literature reported interactions between the 50 SH2 domains tested and the 13 proteins represented on the addressable arrays (Table 1). A handful of differences with literature-reported interactions must, by necessity, be reconciled. Our assumption is that a high-throughput (HTP) study such as this one should capture upwards of 85% of known (literature reported) interactions and that results that differ from low throughput studies described in the literature should be subject to further testing to identify the nature of the discrepancy and reveal any weakness in the HTP dataset. […] For instance, FGFR1 Y-766 (SNQEpYLDLSMP) is reported to bind to PLCγ1 in a pTyr dependant manner based on mutational analysis of FGFR1 [55, 56]. […] This may imply that either this is a binding event specific to PLCγ1 (and not PLCγ2), or that the interaction reported at the level of the full-length protein may be more complex, perhaps requiring secondary contact sites that are not available within the context of the short peptide used in the current study. […] We have made an effort to limit false negatives to those of lower affinity, and we are aware of no instance in our dataset of a sub-micromolar affinity interaction being scored as array-negative.
Peptides were synthesized using FMOC-chemistry onto pre-loaded tenta-gel resins. […] Dissociation constants were measured using the Beacon 2000 (Invitrogen) as previously described.
Binding Affinities determined by Fluorescence Polarization. […] Fluorescence polarization measurements were read on a Beacon 2000 (Invitrogen). […]

Bmx SH2 domain = assay: SPOT peptide array; format: binding; conditions: GST-SH2 0.25 μM, membrane-bound peptide, 1 mM DTT, LiCor read-out
Outline: as §1

Nck1 SH2 domain = Nck1 SH2 domain (Homo sapiens, UniProt P16333); assay: SPOT peptide array; format: binding; conditions: GST-SH2 0.25 μM, membrane-bound peptide, 1 mM DTT, LiCor read-out
Outline: as §1

Src SH2 domain [3] = target: T4, Src SH2 domain (Homo sapiens, UniProt P12931); assay: SPOT peptide array; format: binding; conditions: GST-SH2 0.25 μM
Outline: as §1

Lck SH2 domain = assay: SPOT peptide array; format: binding; conditions: GST-SH2 0.25 μM
Src SH2 domain [4] = target: T4, Src SH2 domain; design: method as in 2 sources, ref [19] = [19]; PMID 7680959; doi:10.1016/0092-8674(93)90404-e; Songyang Z Shoelson SE Chaudhuri M Gish G Pawson T Haser WG King F Roberts T Ratnofsky S Lechleider RJ SH2 domains recognize specific phosphopeptide sequences Cell 1993 72 767 778 7680959 10.1016/0092 ||| ref [119, 121] = [119]; PMID 9032297; doi:10.1128/mcb.17.3.1702; Schlaepfer DD Broome MA Hunter T Fibronectin-stimulated signaling from a focal adhesion kinase-c-Src complex: involvement of the Grb2, p130cas, and Nck adaptor proteins Mol Cell Biol 1997 17 1702 1713 || [121]; PMID 16245368; doi:10.1002/jmr.755; Nasertorabi F Tars K Becherer K Kodandapani R Liljas L Vuori K Ely KR Molecular basis for regulation of Src by the docking protein p130Cas J Mol Recognit 2006 19 30 38 16245368 10.1002/jmr.755; conditions: read-out: Affinity (KD); cited from earlier work
[5] = membrane-bound peptide, 1 mM DTT, LiCor read-out
[6] = spot intensity as factor of array mean

T1 sequence (P46108 13-118 limits assumed): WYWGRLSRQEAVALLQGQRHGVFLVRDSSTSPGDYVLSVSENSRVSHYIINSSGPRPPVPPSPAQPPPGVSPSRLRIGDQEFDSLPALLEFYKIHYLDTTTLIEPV

Compound: EDDGpYDVPKPP [11-mer phosphotyrosine control peptide, Cbl (Y774), reference compound]
- Array positive (Crk SH2 domain [1]): Yes (Array-positive binding was ascribed to interactions with intensities greater than three times the array mean)
- Array positive (Hck SH2 domain): Yes (Array-positive binding was ascribed to interactions with intensities greater than three times the array mean)
- Other SH2 domains bound (additional array-positive SH2 domains) (panel of 50 SH2 domains): Crkl and Fgr, Src, Yes

Compound: QDSLpYSDPLDS [11-mer phosphotyrosine peptide, p62DOK1 (Y315)]
- Array positive (Rasa1_C SH2 domain): Yes (Array-positive binding was ascribed to interactions with intensities greater than three times the array mean)
- Other SH2 domains bound (additional array-positive SH2 domains) (panel of 50 SH2 domains): Abl1, Blk, Crk, Lck, Lyn, Nck1, Src, Zap70_N

Compound: CC[C@H](C)[C@H](NC(=O)[C@H](CC(N)=O)NC(=O)[C@@H](NC(=O)[C@H](Cc1ccc(OP(=O)(O)O)cc1)NC(=O)[C@H](CCC(=O)O)NC(=O)CNC(=O)[C@@H]1CCCN1C(=O)[C@@H](N)CO)C(C)C)C(=O)N[C@@H](CCC(=O)O)C(=O)N[C@@H](Cc1ccccc1)C(=O)NCC(=O)O [SPGEpYVNIEFG]
- Kd (Ptpn11_N SH2 domain): 2080 nM
- Kd (Crk SH2 domain [2]): > 20000 nM
- Kd (PI3K1_N SH2 domain): 2680 nM
- Kd (Plcg2_C SH2 domain): 2920 nM

Compound: WMEDpYDYVHLQ [11-mer phosphotyrosine peptide, p130Cas (Y664)]
- Array positive (Bmx SH2 domain): Yes (Array-positive binding was ascribed to interactions with intensities greater than three times the array mean)
- Array positive (Nck1 SH2 domain): Yes (Array-positive binding was ascribed to interactions with intensities greater than three times the array mean)
- Array positive (Src SH2 domain [3]; [5]): No (Peptide spots with average intensity values between 1X-3X the array mean were defined as ‘indeterminate’. Those with intensities below 1X mean were defined as array negative)
- Peptide array intensity (X mean) (Src SH2 domain [3]; [6]): 2.45 X Mean
- Array positive (Lck SH2 domain; [5]): No (Peptide spots with average intensity values between 1X-3X the array mean were defined as ‘indeterminate’. Those with intensities below 1X mean were defined as array negative)
- Peptide array intensity (X mean) (Lck SH2 domain; [6]): 2.03 X Mean
- Other SH2 domains bound (additional array-positive SH2 domains) (panel of 50 SH2 domains): Bcar3, Brk, Crk, Crkl, Dapp1, Fer, Grb7, Matk, PI3K1_N, Rasa1_N, Rasa1_C, Sh3bp2 and Itk
- Kd (Src SH2 domain [4]): 25 to 46 nM
